Results reported in PubChem BioAssay (NCI).
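Interpolation was linear, between the two tested concentrations surrounding the appropriate level; five concentrations were tested over 48 hours in 96-well plates. Abbreviation: GI50, concentration required for 50% inhibition of growth. TGI is the concentration that stops growth completely.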

What was measured:
Assay in all cases: DTP human tumour cell line panel, 48 h
786-0 renal = test system: 786-0 renal
A498 renal = test system: A498 renal
A549 NSCLC = test system: A549 NSCLC
ACHN renal = test system: ACHN renal
BT-549 breast = test system: BT-549 breast
CAKI-1 renal = test system: CAKI-1 renal
CCRF-CEM leukemia = test system: CCRF-CEM leukemia
COLO 205 colon = test system: COLO 205 colon
DU-145 prostate = test system: DU-145 prostate
EKVX NSCLC = test system: EKVX NSCLC
HCC-2998 colon = test system: HCC-2998 colon
HCT-116 colon = test system: HCT-116 colon
HCT-15 colon = test system: HCT-15 colon
HL-60(TB) leukemia = test system: HL-60(TB) leukemia
HOP-62 NSCLC = test system: HOP-62 NSCLC
HS 578T breast = test system: HS 578T breast
HT29 colon = test system: HT29 colon
IGROV1 ovarian = test system: IGROV1 ovarian
K-562 leukemia = test system: K-562 leukemia
KM12 colon = test system: KM12 colon
LOX IMVI melanoma = test system: LOX IMVI melanoma
M14 melanoma = test system: M14 melanoma
MALME-3M melanoma = test system: MALME-3M melanoma
MCF7 breast = test system: MCF7 breast
MDA-MB-231 breast = test system: MDA-MB-231 breast
MDA-MB-435 = test system: MDA-MB-435
MOLT-4 leukemia = test system: MOLT-4 leukemia
NCI-H226 lung = test system: NCI-H226 lung
NCI-H23 lung = test system: NCI-H23 lung
NCI-H460 lung = test system: NCI-H460 lung
NCI-H522 lung = test system: NCI-H522 lung
NCI/ADR-RES ovarian = test system: NCI/ADR-RES ovarian
OVCAR-3 ovarian = test system: OVCAR-3 ovarian
OVCAR-4 ovarian = test system: OVCAR-4 ovarian
OVCAR-5 ovarian = test system: OVCAR-5 ovarian
OVCAR-8 ovarian = test system: OVCAR-8 ovarian
PC-3 prostate = test system: PC-3 prostate
RPMI-8226 leukemia = test system: RPMI-8226 leukemia
RXF 393 renal = test system: RXF 393 renal
SF-268 CNS = test system: SF-268 CNS
SF-295 CNS = test system: SF-295 CNS
SF-539 CNS = test system: SF-539 CNS
SK-MEL-2 melanoma = test system: SK-MEL-2 melanoma
SK-MEL-28 melanoma = test system: SK-MEL-28 melanoma
SK-MEL-5 melanoma = test system: SK-MEL-5 melanoma
SK-OV-3 ovarian = test system: SK-OV-3 ovarian
SN12C renal = test system: SN12C renal
SNB-19 CNS = test system: SNB-19 CNS
SNB-75 CNS = test system: SNB-75 CNS
SR leukemia = test system: SR leukemia
SW-620 colon = test system: SW-620 colon
T-47D breast = test system: T-47D breast
TK-10 renal = test system: TK-10 renal
U251 CNS = test system: U251 CNS
UACC-257 melanoma = test system: UACC-257 melanoma
UACC-62 melanoma = test system: UACC-62 melanoma
UO-31 renal = test system: UO-31 renal

Compound: Clc1nc(Cl)c2ncn(Cc3ccc(Cn4cnc5c(Cl)nc(Cl)nc54)cc3)c2n1
- GI50 (786-0 renal): 1.6 µM
- TGI (786-0 renal): 11.2 µM
- GI50 (A498 renal): 7.48 µM
- TGI (A498 renal): 50.2 µM
- GI50 (A549 NSCLC): 11.5 µM
- TGI (A549 NSCLC): 25.5 µM
- GI50 (ACHN renal): 5.16 µM
- TGI (ACHN renal): 20.4 µM
- TGI (BT-549 breast): 18.9 µM
- GI50 (CAKI-1 renal): 13.6 µM
- TGI (CAKI-1 renal): 27.8 µM
- TGI (CCRF-CEM leukemia): 1.84 µM
- GI50 (COLO 205 colon): > 100 µM
- TGI (COLO 205 colon): > 100 µM
- TGI (DU-145 prostate): 10 µM
- TGI (EKVX NSCLC): 25 µM
- GI50 (HCC-2998 colon): 11 µM
- TGI (HCC-2998 colon): 24 µM
- GI50 (HCT-116 colon): 0.852 µM
- TGI (HCT-116 colon): 16.2 µM
- GI50 (HCT-15 colon): 6.24 µM
- TGI (HCT-15 colon): 19.3 µM
- GI50 (HL-60(TB) leukemia): 0.0475 µM
- TGI (HL-60(TB) leukemia): 4.4 µM
- GI50 (HOP-62 NSCLC): 6.73 µM
- TGI (HOP-62 NSCLC): 21.5 µM
- TGI (HS 578T breast): > 40.2 µM
- TGI (HT29 colon): 16.4 µM
- GI50 (IGROV1 ovarian): 6.08 µM
- TGI (IGROV1 ovarian): 20.6 µM
- GI50 (K-562 leukemia): 0.661 µM
- TGI (K-562 leukemia): 14 µM
- GI50 (KM12 colon): 12.5 µM
- TGI (KM12 colon): 31.2 µM
- GI50 (LOX IMVI melanoma): 0.96 µM
- TGI (LOX IMVI melanoma): 14.9 µM
- GI50 (M14 melanoma): 11.2 µM
- TGI (M14 melanoma): 27 µM
- GI50 (MALME-3M melanoma): 5.62 µM
- TGI (MALME-3M melanoma): 29.3 µM
- GI50 (MCF7 breast): 2.22 µM
- TGI (MCF7 breast): 14.9 µM
- GI50 (MDA-MB-231 breast): 3.23 µM
- TGI (MDA-MB-231 breast): 22.4 µM
- GI50 (MDA-MB-435): 14.2 µM
- TGI (MDA-MB-435): 33.6 µM
- GI50 (MOLT-4 leukemia): 3.88 µM
- TGI (MOLT-4 leukemia): 16.1 µM
- GI50 (NCI-H226 lung): 11.2 µM
- TGI (NCI-H226 lung): 51.6 µM
- GI50 (NCI-H23 lung): 2.02 µM
- TGI (NCI-H23 lung): 22.8 µM
- GI50 (NCI-H460 lung): 4.75 µM
- TGI (NCI-H460 lung): 22.2 µM
- GI50 (NCI-H522 lung): 5.65 µM
- TGI (NCI-H522 lung): 25 µM
- GI50 (NCI/ADR-RES ovarian): 7.64 µM
- TGI (NCI/ADR-RES ovarian): 28.8 µM
- GI50 (OVCAR-3 ovarian): 8.68 µM
- TGI (OVCAR-3 ovarian): 25.6 µM
- GI50 (OVCAR-4 ovarian): 13.6 µM
- TGI (OVCAR-4 ovarian): 28.6 µM
- GI50 (OVCAR-5 ovarian): 2.03 µM
- TGI (OVCAR-5 ovarian): 10.9 µM
- GI50 (OVCAR-8 ovarian): 10.4 µM
- TGI (OVCAR-8 ovarian): 25 µM
- GI50 (PC-3 prostate): 1.56 µM
- TGI (PC-3 prostate): 16.3 µM
- TGI (RPMI-8226 leukemia): 7.07 µM
- TGI (RXF 393 renal): 0.555 µM
- GI50 (SF-268 CNS): 3.4 µM
- TGI (SF-268 CNS): 23.4 µM
- GI50 (SF-295 CNS): 7.68 µM
- TGI (SF-295 CNS): 48.2 µM
- GI50 (SF-539 CNS): 5.04 µM
- TGI (SF-539 CNS): 20.7 µM
- GI50 (SK-MEL-2 melanoma): 10.8 µM
- TGI (SK-MEL-2 melanoma): 34.9 µM
- TGI (SK-MEL-28 melanoma): 28.3 µM
- GI50 (SK-MEL-5 melanoma): 2.13 µM
- TGI (SK-MEL-5 melanoma): 20.8 µM
- GI50 (SK-OV-3 ovarian): > 100 µM
- TGI (SK-OV-3 ovarian): > 100 µM
- GI50 (SN12C renal): 12.1 µM
- TGI (SN12C renal): 32.4 µM
- GI50 (SNB-19 CNS): 76.2 µM
- TGI (SNB-19 CNS): > 100 µM
- TGI (SNB-75 CNS): 37.6 µM
- GI50 (SR leukemia): 0.287 µM
- TGI (SR leukemia): 8.08 µM
- TGI (SW-620 colon): 8.91 µM
- GI50 (T-47D breast): 12.4 µM
- TGI (T-47D breast): > 36.7 µM
- GI50 (TK-10 renal): 15.6 µM
- TGI (TK-10 renal): 35.2 µM
- GI50 (U251 CNS): 13.2 µM
- TGI (U251 CNS): 27.7 µM
- GI50 (UACC-257 melanoma): 4.87 µM
- TGI (UACC-257 melanoma): 30.5 µM
- GI50 (UACC-62 melanoma): 12.5 µM
- TGI (UACC-62 melanoma): 27.8 µM
- GI50 (UO-31 renal): 5.01 µM
- TGI (UO-31 renal): 20.1 µM
